Assay results reported in patent US10494380B2, “Nitrogen-containing tricyclic derivatives having HIV replication inhibitory activity” (priority 2015, dated 2019).
Like-named read-outs stand apart in the source and are kept apart here.

Legend:
[1] = system: T125A mutant virus (HIV-1 NL-432 recombinant molecular clone, IN gene); assay: HIV replication inhibition assay against integrase 124/125 mutant virus (Test Example 2); format: cell-based
Summary of the method: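 EC50 is the compound concentration blocking half of virus-induced cell death, measured by MTT (OD 560 nm, 690 nm reference) after 4 days at 37 °C. Integrase 124/125 mutant NL-432 virus from transfected 293T cells (60 pfu) was added to 2.5×10^4 MT-4 cells with compound.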

HIV = format: cell-based; details: EC50 in the presence of human serum (25%) versus without human serum, MT-4 cells
Summary of the method: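 HIV-infected MT-4 cells (3×10^4/well, infected 1 h at 37° C) are grown 4 days with compound that was first mixed 1 h with human serum or with medium only. Potency shift is the EC50 with serum divided by the EC50 without serum.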

[2] = system: sheep red blood cells (RBC); assay: Photohemolysis test (Test Example 13); format: cell-based; details: 0.0008 to 0.1 w/v %, 10 J/cm2 UV-irradiation (290-400 nm)
Description: Aliquots of sheep red blood cells (RBC) suspension prepared with medium to make a 2.5 v/v % concentration are dispensed into microplates. The compound of the present invention was desolved with a vehicle to make target concentrations and then these solutions were immediately added (in concentrations of 0.0008 to 0.1 w/v %) into the microplates. The mixtures on the microplates were exposed to 10 J/cm2 of UV-irradiation (UV-A and UV-B, 290-400 nm) with a GL20SE lamp (SANKYO DENKI) and a FL20S-BLB lamp (Panasonic). After the UV-irradiation, the mixtures were centrifuged. Aliquots of supernatant were transferred to a microplate. Absorbance of the supernatants was measured at 540 nm and 630 nm for judgement of the potential of phototoxicity. In the study, two endpoints were evaluated in biomembrane impairment (% of photohemolysis index; PI) and hyperoxidation of lipid membrane (methemoglobin formation; met-Hb) with the absorbance at 540 nm and 630 nm, respectively. PI and met-Hb were assessed based on the negative criteria (−), PI<10% and changes in absorbance at 630 nm<0.05, respectively. All else was judged as positive (+).

HIV (HTLV-IIIB strain) = assay: HIV replication inhibition assay (Test Example 1; MT-4 cells, MTT); format: cell-based
Description: HIV (HTLV-IIIB strain) persistent infected human T cell strain Molt-4 clone8 was cultured in RPMI-1640 medium supplemented with 10% fetal bovine serum and the supernatant was filtered, then the virus titer was measured and stored at −80° C. Each anti-human immunodeficiency virus active substance was diluted with the above culture medium to the designated concentration, which was dispensed into 96-well microtiter plate by 50 μL. Next, 100 μL of MT-4 cell suspension (2.5×10^4 cells) was dispensed into each well, then 50 μl of the above HIV-containing supernatant diluted with the above culture medium was added thereto (60 pfu (plaque forming unit)).
Cell mixture was cultured at 37° C. in CO2 incubator for four days, then 30 μL of MTT (3-(4,5-dimethylthiazole-2-yl)-2,5-diphenyltetrazolyum bromide) reagent (5 mg/mL in PBS) was added to all wells followed by incubation for 1 hour. In this step, MTT was reduced to insoluble formazan in living cells. To elute generated formazan 150 μL of the culture supernatant was removed from all wells, then 150 μL of cell lysis solution (10% Triton X-100 and 0.4% (v/v)-HCl containing isopropanol) was added thereto, followed by shaking with a plate mixer. The formazan was measured with micro plate reader at OD: 560 nm and 690 nm (reference wavelength) and the result was compared with the reference wells. EC50 and EC90 mean the compound concentration at which cytotoxicity caused by virus infection is inhibited 50% and 90%, respectively.

CYP2C9 = CYP2C9 (Homo sapiens (Human), UniProt P11712); assay: CYP inhibition assay, tolbutamide methyl-hydroxylation (Test Example 4); format: in vitro ADME; details: pooled human hepatic microsome, 100 μmol/L tolbutamide, 15 minutes, 37° C.
Description: Using commercially available pooled human hepatic microsome, and employing, as markers, 7-ethoxyresorufin O-deethylation (CYP1A2), tolbutamide methyl-hydroxylation (CYP2C9), mephenytoin 4′-hydroxylation (CYP2C19), dextromethorphan O-demethylation (CYP2D6), and terfenadine hydroxylation (CYP3A4) as typical substrate metabolism reactions of human main five CYP enzyme forms (CYP1A2, 2C9, 2C19, 2D6, 3A4) an inhibitory degree of each metabolite production amount by a test compound was assessed.
The reaction conditions were as follows: substrate, 0.5 μmol/L ethoxyresorufin (CYP1A2), 100 μmol/L tolbutamide (CYP2C9), 50 μmol/L S-mephenytoin (CYP2C19), 5 μmol/L dextromethorphan (CYP2D6), 1 μmol/L terfenedine (CYP3A4); reaction time, 15 minutes; reaction temperature, 37° C.; enzyme, pooled human hepatic microsome 0.2 mg protein/mL; test drug concentration, 1, 5, 10, 20 μmol/L (four points).
Each five kinds of substrates, human hepatic microsome, and a test drug in 50 mmol/L Hepes buffer as a reaction solution was added to a 96-well plate as the composition ad described above, NADPH, as a coenzyme was added to initiate metabolism reactions as markers and, after the incubation at 37° C. for 15 minutes, a methanol/acetonitrile=1/1 (V/V) solution was added to stop the reaction. After the centrifugation at 3000 rpm for 15 minutes, resorufin (CYP1A2 metabolite) in the supernatant was quantified by a fluorescent multilabel counter and tolbutamide hydroxide (CYP2C9 metabolite), mephenytoin 4′ hydroxide (CYP2C19 metabolite), dextrorphan (CYP2D6 metabolite), and terfenadine alcohol (CYP3A4 metabolite) were quantified by LC/MS/MS.

CYP3A4 = CYP3A4 (Homo sapiens (Human), UniProt P08684); assay: CYP3A4 (MDZ) MBI test (Test Example 6); details: pooled human liver microsomes, midazolam 1-hydroxylation, preincubation 0 or 30 min
[3] = Human immunodeficiency virus 1, MT4, read-out: EC50 against T125A mutant virus, T125A mutant virus (HIV-1 NL-432 IN gene), MT-4 cells, MTT
[4] = Human immunodeficiency virus 1, MT4, 96 h, HIV (HTLV-IIIB strain), MT-4 cells, MTT, four days, read-out: EC50
[5] = Human immunodeficiency virus 1, MT4, 96 h, HIV (HTLV-IIIB strain), MT-4 cells, MTT, four days, read-out: EC90
[6] = T125A mutant virus (HIV-1 NL-432 IN gene), MT-4 cells, MTT, read-out: EC50 against T125A mutant virus
[7] = HIV (HTLV-IIIB strain), MT-4 cells, MTT, four days, read-out: EC50
[8] = HIV (HTLV-IIIB strain), MT-4 cells, MTT, four days, read-out: EC90
[9] = Human immunodeficiency virus 1, MT4, 96 h, MT-4 cells, HIV HTLV-IIIB strain, cultured four days, MTT, read-out: EC50
[10] = Human immunodeficiency virus 1, IIIB, MT4, 96 h

Chain of CYP2C9 (P11712 whole entry): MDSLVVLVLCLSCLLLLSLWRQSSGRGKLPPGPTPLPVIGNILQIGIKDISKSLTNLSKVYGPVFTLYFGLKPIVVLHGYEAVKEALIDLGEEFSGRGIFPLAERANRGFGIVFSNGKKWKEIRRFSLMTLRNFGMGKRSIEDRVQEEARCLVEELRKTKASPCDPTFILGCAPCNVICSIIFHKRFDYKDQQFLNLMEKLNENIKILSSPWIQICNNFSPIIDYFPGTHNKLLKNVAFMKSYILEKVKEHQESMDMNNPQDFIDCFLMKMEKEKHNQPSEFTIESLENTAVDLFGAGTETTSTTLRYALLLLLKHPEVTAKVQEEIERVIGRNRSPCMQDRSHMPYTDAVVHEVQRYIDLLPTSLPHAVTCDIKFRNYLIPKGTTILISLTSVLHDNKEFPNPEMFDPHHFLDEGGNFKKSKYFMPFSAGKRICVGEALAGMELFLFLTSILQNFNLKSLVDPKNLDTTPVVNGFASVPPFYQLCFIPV
Chain of CYP3A4 (P08684 whole entry): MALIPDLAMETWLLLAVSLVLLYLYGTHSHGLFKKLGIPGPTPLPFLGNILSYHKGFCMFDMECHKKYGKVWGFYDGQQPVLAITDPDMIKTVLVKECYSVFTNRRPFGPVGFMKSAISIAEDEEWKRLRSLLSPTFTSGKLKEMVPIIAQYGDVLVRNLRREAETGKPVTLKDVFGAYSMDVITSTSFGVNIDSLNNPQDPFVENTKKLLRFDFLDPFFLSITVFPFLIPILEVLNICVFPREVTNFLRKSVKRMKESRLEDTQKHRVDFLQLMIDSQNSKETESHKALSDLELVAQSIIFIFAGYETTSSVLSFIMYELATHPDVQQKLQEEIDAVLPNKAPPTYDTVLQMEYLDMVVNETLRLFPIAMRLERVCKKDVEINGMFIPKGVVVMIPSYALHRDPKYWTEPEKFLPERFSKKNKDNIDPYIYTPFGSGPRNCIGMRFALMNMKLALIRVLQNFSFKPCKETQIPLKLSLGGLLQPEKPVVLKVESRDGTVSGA

Compound | EC50 [1, 3] [nM] | Potency shift value (HIV) | Photohemolysis test, potential of phototoxicity (PI and met-Hb) [2] | EC50 (HIV (HTLV-IIIB strain); [4]) [nM] | EC90 (HIV (HTLV-IIIB strain); [5]) [nM] | IC50 (CYP2C9) [nM] | CYP3A4 (MDZ) MBI, shifted IC (CYP3A4) | EC50 [1, 6] [nM] | EC50 (HIV (HTLV-IIIB strain); [7]) [nM] | EC90 (HIV (HTLV-IIIB strain); [8]) [nM] | EC50 (HIV (HTLV-IIIB strain); [9]) [nM] | EC50 (HIV (HTLV-IIIB strain); [10]) [nM] | EC90 (HIV (HTLV-IIIB strain); [10]) [nM]
Cc1ccc(-c2c([C@H](OC(C)(C)C)C(=O)O)c(C)c3c4c2cc(C)n4CCN3C)cc1 [Compound I-001] | 4.7 | 13 | (−) (negative criteria (−), PI<10% and changes in absorbance at 630 nm<0.05, respectively) | 0.69 | 1.1 |  |  |  |  |  |  |  | 
CCOc1cnc(N2CCn3c(C)cc4c(-c5ccc(C)cc5)c([C@H](OC(C)(C)C)C(=O)O)c(C)c2c43)nc1 [Compound I-197] |  | 32 | (−) (negative criteria (−), PI<10% and changes in absorbance at 630 nm<0.05, respectively) | 1.3 | 2.2 | > 20000 |  |  |  |  |  |  | 
COCCN1CCn2c(C)cc3c(-c4ccc(C)cc4)c([C@H](OC(C)(C)C)C(=O)O)c(C)c1c32 [Compound I-026] | 13 | 13 |  | 0.99 | 1.6 | > 20000 |  |  |  |  |  |  | 
Cc1c([C@H](OC(C)(C)C)C(=O)O)c(-c2ccc(Cl)cc2)c2cc(C)n3c2c1N(S(C)(=O)=O)CC3 [Compound I-019] |  | 16 |  |  |  |  | (−) (When a shifted IC was 1.0 or less, this was defined as negative) | 6.6 | 1.2 | 1.6 |  |  | 
Cc1c([C@H](OC(C)(C)C)C(=O)O)c(-c2ccc(Cl)cc2)c2cc(C)n3c2c1N(CCN(C)C)[C@H](C)C3 [Compound I-112] | 18 | 3.5 | (−) (negative criteria (−), PI<10% and changes in absorbance at 630 nm<0.05, respectively) | 4.9 | 11 | > 20000 |  |  |  |  |  |  | 
Cc1ccc(-c2c([C@H](OC(C)(C)C)C(=O)O)c(C)c3c4c2cc(C)n4CCN3c2ncc(OCCN3CCOCC3)cn2)cc1 [Compound I-276] | 5.1 | 5.9 |  | 1.5 | 2.5 |  |  |  |  |  |  |  | 
Cc1c([C@H](OC(C)(C)C)C(=O)O)c(-c2ccc(Cl)cc2)c2cc(C)n3c2c1N(C)CC3 [Compound I-012] | 3.8 | 13 | (−) (negative criteria (−), PI<10% and changes in absorbance at 630 nm<0.05, respectively) | 0.77 | 1.1 |  |  |  |  |  |  |  | 
Cc1c([C@H](OC(C)(C)C)C(=O)O)c(-c2ccc(Cl)cc2)c2cc(C)n3c2c1N1C(=O)OCC[C@@H]1C3 [Compound I-167] | 49 | 4.1 |  |  | 18 |  |  |  |  |  | 7.6 |  | 
Cc1c([C@H](OC(C)(C)C)C(=O)O)c(-c2ccc(Cl)cc2)c2cc(C)n3c2c1N(c1ncccn1)CC3 [Compound I-085] |  | 22 | (−) (negative criteria (−), PI<10% and changes in absorbance at 630 nm<0.05, respectively) |  |  |  |  | 3.7 | 0.54 | 0.58 |  |  | 
Cc1c([C@H](OC(C)(C)C)C(=O)O)c(-c2ccc(F)cc2)c2cc(C)n3c2c1N(C)CC3 [Compound I-048] | 11 | 9.2 | (−) (negative criteria (−), PI<10% and changes in absorbance at 630 nm<0.05, respectively) | 1.2 | 1.5 | > 20000 |  |  |  |  |  |  | 
Cc1ccc(-c2c([C@H](OC(C)(C)C)C(=O)O)c(C)c3c4c2cc(C)n4CCN3c2noc(C)n2)cc1 [Compound I-227] | 4.1 | 15 |  | 1 | 1.4 |  |  |  |  |  |  |  | 
Cc1c([C@H](OC(C)(C)C)C(=O)O)c(-c2ccc(Cl)cc2)c2cc(C)n3c2c1N(S(=O)(=O)CC[Si](C)(C)C)CC3 [Compound I-029] | 89 | 28 |  |  |  |  |  |  |  |  |  | 8.6 | 12
CCS(=O)(=O)N1CCn2c(C)cc3c(-c4ccc(Cl)cc4)c([C@H](OC(C)(C)C)C(=O)O)c(C)c1c32 [Compound I-023] | 5.5 | 12 |  | 1 | 2.6 |  |  |  |  |  |  |  | 
Cc1ccc(-c2c([C@H](OC(C)(C)C)C(=O)O)c(C)c3c4c2cc(C)n4CCN3c2ncc(N3CCOCC3)cn2)cc1 [Compound I-272] | 4.3 | 16 |  | 1.6 | 2 |  |  |  |  |  |  |  | 
Cc1c([C@H](OC(C)(C)C)C(=O)O)c(-c2ccc(F)cc2)c2cc(C)n3c2c1N(CCN(C)C)CC3 [Compound I-171] | 62 | 1.4 |  |  | 24 |  |  |  |  |  | 15 |  | 
